Data: patent publication US5906922A, “Delivery of nucleic acids” (Commonwealth Scientific and Industrial Research Organisation, priority 1994, dated 1999)
Like-named read-outs stand apart in the source and are kept apart here. Where a SMILES comes first, the peptide text is derived from it. The star is where a group is joined. NHC(CH2O-Palmitoyl)3 = CCCCCCCCCCCCCCCC(=O)OCC(COC(=O)CCCCCCCCCCCCCCC)(COC(=O)CCCCCCCCCCCCCCC)N*; X1 = CCCCCCCCCCCCCCCC(=O)OCC(CO)(CO)N*

Legend:
Cos 1 cells [1] = test: β-gal microtitre plate transfection assay, Cos 1; type: cell-based, African Green Monkey; conditions: for β-gal (Cos 1): Table 3, Cos 1, highest reading of 72 conditions
Procedure, shortened: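 Cos 1 cells were transfected with β-galactosidase plasmids (mouse PGK or SV40 early promoter) across varied lipid/DNA ratios in microtitre format. The lipid/DNA ratio giving maximal expression was recorded. Viability was measured with alamar blue or MTS, where higher OD means greater viability.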

CHO cells [2] = test: β-gal microtitre plate transfection assay, CHO; type: cell-based, Chinese Hamster; conditions: Table 3, CHO, highest reading of 72 conditions
Source text: (§1) For experiment "c", a plasmid pPGKlaczNLS encoding β-galactosidase under the control of the mouse PGK promoter (kind gift from G.Hannan) or pSVGAL which utilises the SV40 early promoter (Sleigh, M. J. and Lockett, T. J. (1985). EMBO J. 4:3831-3837),was transfected. This experiment and assay were modified from Feigner et al J. Biol Chem. 269(4) 2550-2561 1994. This protocol allows the simultaneous assessment of 72 different combinations and concentrations of DNA and test agent in a microtitre tray. […] Cytotoxicity was assessed using alamar blue, and a sample graph is shown for experiment a.
Each of these compounds was tested for transfection ability and cytotoxicity on standard cell lines using standard conditions as described above.
(§2) The ratio of [lipid]/[DNA] at which that maximum was achieved is shown in brackets for the two different cell types in the following order; (Cos 1) (CHO). Experiments shown were carried out in Cos 1 cells, as described above. Viability was measured with the dye alamar blue . # Denotes compounds tested in a separate experiment. * Viability in this experiment was determined with MTS. OD is a measure of relative viability of the cells exposed to the different agents, and as with alamar blue, a higher value indicates greater cell viability.

Cos 1 cells [3] = type: cell-based, African Green Monkey
Source text: (§3) Relative levels of cytotoxicity caused by the different agents were compared during the experiment using the dye "Alamar Blue" (Alamar, Sacramento Calif.).
as §1
The ratio of [lipid]/[DNA] at which that maximum was achieved is shown. Experiments shown were carried out in Cos 1 cells, as described above. MTS OD is a measure of relative viabilility of the cells exposed to the different agents, a higher value indicates greater cell viability. * These points were taken from a separate experiment and some slight variation between absolute numbers should be expected between experiments.
as §2

CHO cells [4] = type: cell-based, Chinese Hamster
Method: (LEGEND--FIGS. 7, 8 and 9; none; no agent used with plasmid DNA, rb/blank; reagent blank, number following description of compound indicates no. μl of 2 mM stock (diluted with water). 7b: 100% cell survival was taken from dishes which were "mock transfected" with no DNA or transfection agent. 0% viability was assayed in the absence of cells. Viability was assessed using the dye alamar blue.)
as §3, §2

Hela cells = test: β-gal plate transfection assay, Hela; type: cell-based, Human; conditions: 48 hours
Method: Hela cells were seeded in place of Cosl or CHO cells in DME+10% FCS at a density of 2×10^4 /well and transfected with pPGKlaczNLS as described above. At 48 hours, toxicity was determined by alamar blue and the cells processed for the β-gal assay.

Cos 1 cells [5] = test: Transfection of pSVLCAT, CAT assay, Cos 1; type: cell-based, African Green Monkey; conditions: for Transfection (CAT): Table 1, Cos 1, optimised level of agent
CHO cells [6] = test: Transfection of pSVLCAT, CAT assay, CHO; type: cell-based, Chinese Hamster; conditions: for Transfection (CAT): Table 1, CHO, optimised level of agent
Method: Protocol was the same for Verafectin and Transfectam (see above) with the exception that 0.5 μg of pSVLCAT DNA was used /60 mm dish.
Lipofectamine protocol was according to manufacturer's instructions. 0.5 μg pSVLCAT/60 mm dish. CHO cells seeded 1×10^5 /60 mm dish and adhered overnight in DME/Hams medium with 10% FCS.
Transfectam 5 or 10 μl 1mg/400 μl stock solution.
Lipofectamine 5 or 10 μl 2 mg/ml (mixed formulation 3:1 with DOPE). VerafectinA3 (K3ATP3) and VerafectinG2 (K3G[Glycine]TP2) each at 5, 10 and 15 μl of 2 mM (2.8 and 2.3 mg/ml respectively) stock.
The serum free incubation period in the presence of test agents and DNA was 6 hours, then 1 ml DME/Hams+10% FCS was added. At 24 hrs the medium was changed to 2 ml of fresh DME/Hams+10% FCS until harvest at 48 hrs.
(§4) Cell lines Cos 1 or CHO were transfected with 0.5 μg of pSVLCAT or 2 μg of pPGKlacZ plasmid using a range of concentrations of each transfection compound. The optimal concentration of compound, that is the concentration giving the highest level of CAT at 48 hours or the greatest percentage of lac z (β-galactosidase) staining cells at 24 hours was used to collate data for Table 1. As all compounds were not tested in a single experiment, absolute figures indicating transfection were not used. Rather, symbols are used to indicate the transfection efficiency relative to Lipofectamine (BRL), which was included as a control in all experiments. Table 1 thus indicates the relative efficiencies of a number of compounds in mediating the transfection of at least one cell type.
All test lipopeptide reagents were originally dissolved at 10 mM in 75% DMSO, and subsequently diluted with water to make a 2 mM stock stored at 4° C. Volumes of 2 mM stock lipopeptide ranging from 2 μl to 15 μl were diluted in 500 μl of DDME. 1 μg of plasmid pSVLCAT was separately diluted in 500 μl of DDME. Solutions were combined for 10-20 min at room temperature before adding to 500 μl of DDME in 60 mm dishes of subconfluent CHO cells (2×10^5 day-1) or Cos 1 cells (5×10^5 day-1); washed free of serum with DDME.
Cells were incubated for 6 hrs under standard conditions of 37° C. and 5% CO2 for 6 hours. 1.5 ml of DME/Hams+10% FCS (CHO) or DME+10% FCS (Cos 1) was added to the cells for overnight incubation. Fresh DME/Hams+10% FCS or DME+10% FCS was used to replace the medium for a further 24 hours prior to harvest. Cell lysates were prepared and assayed for CAT activity as described above. For Cos 1 cells, culture supernatants were assayed for CAT activity.
a. Using the standard transfection procedure described above, and 1 μg plasmid pSVLCAT, these formulations were tested on CHO cells at a single concentration equivalent to 10 μl of Verafectin A2 (2 mM) per sample and compared to unformulated compound and Lipofectamine in the same cell type. CAT production was assayed 48 hours after transfection.

Cos 1 cells [7] = type: cell-based, African Green Monkey; remark: listed apart in the source
Procedure, shortened: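 Relative viability of Cos 1 cells exposed to lipid/DNA agents was read as MTS optical density; higher OD means greater viability. Some points came from separate experiments.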

mammalian cells = test: Transfection efficiency, general conclusions over cell lines; type: cell-based; conditions: other experiments (not shown)
Method: as §4
The compounds of the generic formula described on page 3 were addressed as consisting of the described basic building blocks: "x, y, R1-R4". These components were systematically varied to assess the optimal building blocks for transfection of standard cell lines in a standard assay system. Results will be presented by the use of example experiments, and shown as the levels of reporter gene expression achieved under standard conditions by either overall levels (CAT or β-galactosidase expression) or as % cells transfected (β-galactosidase--blue cells). Representative levels of cytotoxicity will also be described. […]

Cos 1 cells [8] = test: Proportion of cells transfected (β-gal staining), Cos 1; type: cell-based, African Green Monkey; conditions: Table 1, Cos 1, % of cells
Method: as §4
(§5) These conjugates were used to transfect CHO and Cos 1 cells with pPGKlacZNLS for estimation of the proportion of cells transfected. The transfection conditions used were as described above for the CAT experiments with cells being grown in 35 mm dishes for transfection. Cells were seeded the day prior to transfection at a density of 3.4×10^5 /dish (Cos 1) or 6.8×10^4 /dish (CHO). […] Random fields of cells were examined under the light microscope and the proportion of blue (β-GAL expressing) cells was determined.

CHO cells [9] = test: Proportion of cells transfected (β-gal staining), CHO; type: cell-based, Chinese Hamster
Method: as §4
as §5, with “determined. […]” for “determined.”

## CCCCCCCCCC(=O)OCC(COC(=O)CCCCCCCCC)(COC(=O)CCCCCCCCC)NC(=O)[C@H](C)NC(=O)[C@H](CCCCN)NC(=O)[C@H](CCCCN)NC(=O)[C@@H](N)CCCCN [K3ATC3]
Cos 1 cells [1]; Table 3, Cos 1
  ratio [lipid]/[DNA] at which maximum was achieved: 2.77
Cos 1 cells [1]
  β-gal (Cos 1): 9.08 × 10^-6
CHO cells [2]
  β-gal (CHO): 5.27 × 10^-6
Cos 1 cells [3]
  Viability (Cos 1): 0.104
CHO cells [4]
  Viability (CHO): 0.052
Hela cells
  transfection ability, chain length C10 to C16: transfection ability was seriously curtailed

## CCCCCCCCCCCCCCCC(=O)OCC(CO)(CO)NC(=O)[C@H](C)NC(=O)[C@H](CCCCN)NC(=O)[C@H](CCCCN)NC(=O)[C@@H](N)CCCCN [K3ATP1, trilysine alanine tris monopalmitate] (H-KKKA-X1)
Cos 1 cells [5]
  Transfection (CAT): +
CHO cells [6]
  Transfection (CAT): +
Cos 1 cells [1]; Table 2, Cos 1
  ratio [lipid]/[DNA] at which maximum was achieved: 5.55
Cos 1 cells [1]; Table 2, Cos 1, highest reading of 72 conditions
  units β-gal: 9.32 × 10^-6 units
Cos 1 cells [1]; Table 3, Cos 1
  ratio [lipid]/[DNA] at which maximum was achieved: 5.55
Cos 1 cells [1]
  β-gal (Cos 1): 9.32 × 10^-6
Cos 1 cells [7]
  MTS OD490-655: 1.34
  Viability (Cos 1): 1.34
Mammalian cells
  activity relative to tripalmitate K3 molecules: 30%

## CCCCCCCCCCCCCCCC(=O)OCC(COC(=O)CCCCCCCCCCCCCCC)(COC(=O)CCCCCCCCCCCCCCC)NC(=O)[C@H](C)NC(=O)[C@H](CCCCN)NC(=O)[C@H](CCCCN)NC(=O)[C@H](CCCCN)NC(=O)[C@@H](N)CCCCN [K4ATP3] (H-KKKKA-{NHC(CH2O-Palmitoyl)3})
Cos 1 cells [5]; R1-R4 experiment g, Cos 1
  transfection, one to three palmitates, tetra lysine alanine: more effective than the di or monopalmitate
Cos 1 cells [5]
  Transfection (CAT): +(+)
CHO cells [6]; "x" peptide experiment c, CHO, 2 hours incubation of 20 μl lysate
  mean level of CAT activity: 1071
Cos 1 cells [8]
  Transfection (βGal): < 1%

## CCCCCCCCCCCCCCCC(=O)OCC(COC(=O)CCCCCCCCCCCCCCC)(COC(=O)CCCCCCCCCCCCCCC)NC(=O)[C@H](C)N [K0ATP3]
CHO cells [6]; "x" peptide experiment a, CHO
  CAT transfection: no measurable transfection
CHO cells [9]; CHO cells
  transfection (β-gal assay): low levels of transfection

## CCCCCCCCCCCCCCCC(=O)OCC(CO)(COC(=O)CCCCCCCCCCCCCCC)NC(=O)CNC(=O)[C@H](CCCCN)NC(=O)[C@H](CCCCN)NC(=O)[C@@H](N)CCCCN [K3GTP2]
Cos 1 cells [5]; Experiment 4, Cos 1, 48 hours
  transfection level relative to Lipofectamine: ~30%
Cos 1 cells [5]; Experiment 4, Cos 1, compared to VerafectinG2 alone
  effect of equimolar DOPE on transfection efficiency: approximate doubling of transfection efficiency
Cos 1 cells [5]; Experiment 4, Cos 1, plus equimolar unformulated DOPE
  transfection level with equimolar DOPE relative to Lipofectamine: approximately 60%
Cos 1 cells [5]
  Transfection (CAT): ++
CHO cells [6]; Experiment 3, CHO, 5 μl
  CAT levels relative to Lipofectamine: ~22%
  CAT levels relative to Transfectam: approximately 64%
CHO cells [6]
  Transfection (CAT): +++
CHO cells [9]; Table 1, CHO, % of cells
  Transfection (βGal): < 1%
